Results: patent US20130072430A1, “METHODS FOR TREATMENT OR PROPHYLAXIS OF KIDNEY OR LIVER DYSFUNCTION” (NPS PHARMACEUTICALS, INC., priority 2010, published 2013)

System: Human patients with short bowel syndrome
Experiment: Example 2: liver biomarkers (albumin, gamma glutamyl transferase, total bilirubin, ALT, AST, ALP) in short bowel syndrome patients, every four weeks for 24 weeks
Type: in vivo
Details: 0.05 mg/kg/d
Description: To further confirm the results of Example 1, a further study was conducted involving more individuals and additional diagnostic biomarkers. Human patients with short bowel syndrome were divided into two groups: a control group (43 total individuals) to receive placebo, and an experimental group (42 total individuals) to receive teduglutide at 0.05 mg/kg/day throughout the study. Patients were treated by subcutaneous injection of placebo or the appropriate dose of teduglutide. Known biomarkers of liver function were monitored every four weeks, for 24 weeks. The liver biomarkers tested included albumin, gamma glutamyl transferase, total bilirubin, ALT and AST and ALP. Before administration of placebo or teduglutide, diagnostic biomarker levels were tested to establish a baseline for each individual.
To determine the effect of GLP-2 on the levels of the diagnostic biomarkers, the average level of each biomarker was measured for the placebo and teduglutide treated groups for each visit. Furthermore, the average change from baseline was calculated using the established baseline values. For FIGS. 17-28, p-values were calculated using the t-test.
P values are provided, which were calculated for each distribution of biomarker changes for each week using the chi-squared test.

CC[C@H](C)[C@H](NC(=O)[C@H](Cc1ccccc1)NC(=O)[C@H](CC(=O)O)NC(=O)[C@H](CCCNC(=N)N)NC(=O)[C@H](C)NC(=O)[C@H](C)NC(=O)[C@H](CC(C)C)NC(=O)[C@H](CC(N)=O)NC(=O)[C@H](CC(=O)O)NC(=O)[C@H](CC(C)C)NC(=O)[C@@H](NC(=O)[C@@H](NC(=O)[C@H](CC(N)=O)NC(=O)[C@H](CCSC)NC(=O)[C@H](CCC(=O)O)NC(=O)[C@H](CC(=O)O)NC(=O)[C@H](CO)NC(=O)[C@H](Cc1ccccc1)NC(=O)[C@H](CO)NC(=O)CNC(=O)[C@H](CC(=O)O)NC(=O)CNC(=O)[C@@H](N)Cc1c[nH]cn1)[C@@H](C)O)[C@@H](C)CC)C(=O)N[C@@H](CC(N)=O)C(=O)N[C@@H](Cc1c[nH]c2ccccc12)C(=O)N[C@@H](CC(C)C)C(=O)N[C@H](C(=O)N[C@@H](CCC(N)=O)C(=O)N[C@H](C(=O)N[C@@H](CCCCN)C(=O)N[C@H](C(=O)N[C@H](C(=O)N[C@@H](CC(=O)O)C(=O)O)[C@@H](C)O)[C@@H](C)CC)[C@@H](C)O)[C@@H](C)CC [teduglutide]
Gamma Glutamyl Transferase Change from Baseline, Median (Week 8, n=40): −5.5 U/L
Gamma Glutamyl Transferase Observed Value, Mean (Week 8, n=40): 71.5 U/L
Gamma Glutamyl Transferase Observed Value, Median (Week 8, n=40): 46 U/L
ALT >10% decrease from Baseline, % of subjects (Week 12, m=34): (50.0%)
ALT >10% decrease from Baseline, n subjects (Week 12, m=34): 17
ALT >10% increase from Baseline, % of subjects (Week 12, m=34): (20.6%)
ALT >10% increase from Baseline, n subjects (Week 12, m=34): 7
ALT Within 10% of Baseline, % of subjects (Week 12, m=34): (29.4%)
ALT Within 10% of Baseline, n subjects (Week 12, m=34): 10
AST >10% decrease from Baseline, % of subjects (Week 12, m=34): (61.8%)
AST >10% decrease from Baseline, n subjects (Week 12, m=34): 21
AST >10% increase from Baseline, % of subjects (Week 12, m=34): (20.6%)
AST >10% increase from Baseline, n subjects (Week 12, m=34): 7
AST Within 10% of Baseline, % of subjects (Week 12, m=34): (17.6%)
AST Within 10% of Baseline, n subjects (Week 12, m=34): 6
Albumin >10% decrease from Baseline, % of subjects (Week 12, m=34): (5.9%)
Albumin >10% decrease from Baseline, n subjects (Week 12, m=34): 2
Albumin >10% increase from Baseline, % of subjects (Week 12, m=34): (2.9%)
Albumin >10% increase from Baseline, n subjects (Week 12, m=34): 1
Albumin Within 10% of Baseline, % of subjects (Week 12, m=34): (91.2%)
Albumin Within 10% of Baseline, n subjects (Week 12, m=34): 31
Alkaline Phosphatase >10% decrease from Baseline, % of subjects (Week 12, m=34): (67.6%)
Alkaline Phosphatase >10% decrease from Baseline, n subjects (Week 12, m=34): 23
Alkaline Phosphatase >10% increase from Baseline, % of subjects (Week 12, m=34): (14.7%)
Alkaline Phosphatase >10% increase from Baseline, n subjects (Week 12, m=34): 5
Alkaline Phosphatase Within 10% of Baseline, % of subjects (Week 12, m=34): (17.6%)
Alkaline Phosphatase Within 10% of Baseline, n subjects (Week 12, m=34): 6
Bilirubin >10% decrease from Baseline, % of subjects (Week 12, m=34): (44.1%)
Bilirubin >10% decrease from Baseline, n subjects (Week 12, m=34): 15
Bilirubin >10% increase from Baseline, % of subjects (Week 12, m=34): (26.5%)
Bilirubin >10% increase from Baseline, n subjects (Week 12, m=34): 9
Bilirubin Within 10% of Baseline, % of subjects (Week 12, m=34): (29.4%)
Bilirubin Within 10% of Baseline, n subjects (Week 12, m=34): 10
ALKALINE PHOSPHATASE Change from Baseline, Median (Week 12, n=34): −23 U/L
ALT Change from Baseline, Mean (Week 12, n=34): −9.8 U/L
ALT Change from Baseline, Median (Week 12, n=34): −4 U/L
ALT Observed Value, Mean (Week 12, n=34): 33.6 U/L
ALT Observed Value, Median (Week 12, n=34): 27.5 U/L
AST Change from Baseline, Mean (Week 12, n=34): −4.2 U/L
AST Change from Baseline, Median (Week 12, n=34): −5 U/L
AST Observed Value, Mean (Week 12, n=34): 28.4 U/L
AST Observed Value, Median (Week 12, n=34): 25 U/L
Albumin Change from Baseline, Mean (Week 12, n=34): -0.9 g/L
Albumin Change from Baseline, Median (Week 12, n=34): -1 g/L
Albumin Observed Value, Mean (Week 12, n=34): 41.2 g/L
Albumin Observed Value, Median (Week 12, n=34): 41 g/L
Alkaline Phosphatase Change from Baseline, Mean (Week 12, n=34): −27.2 U/L
Alkaline Phosphatase Observed Value, Mean (Week 12, n=34): 108.6 U/L
Alkaline Phosphatase Observed Value, Median (Week 12, n=34): 98 U/L
Bilirubin Change from Baseline, Mean (Week 12, n=34): -1.54 µmol/L
Bilirubin Change from Baseline, Median (Week 12, n=34): -0.05 µmol/L
Bilirubin Observed Value, Mean (Week 12, n=34): 10.57 µmol/L
Bilirubin Observed Value, Median (Week 12, n=34): 8.35 µmol/L
Gamma Glutamyl Transferase Change from Baseline, Mean (Week 12, n=34): −8.1 U/L
Gamma Glutamyl Transferase Change from Baseline, Median (Week 12, n=34): −4 U/L
Gamma Glutamyl Transferase Observed Value, Mean (Week 12, n=34): 67.9 U/L
Gamma Glutamyl Transferase Observed Value, Median (Week 12, n=34): 51 U/L
ALT >10% decrease from Baseline, % of subjects (Week 16, m=38): (52.6%)
ALT >10% decrease from Baseline, n subjects (Week 16, m=38): 20
ALT >10% increase from Baseline, % of subjects (Week 16, m=38): (21.1%)
ALT >10% increase from Baseline, n subjects (Week 16, m=38): 8
ALT Within 10% of Baseline, % of subjects (Week 16, m=38): (26.3%)
ALT Within 10% of Baseline, n subjects (Week 16, m=38): 10
AST >10% decrease from Baseline, % of subjects (Week 16, m=38): (50.0%)
AST >10% decrease from Baseline, n subjects (Week 16, m=38): 19
AST >10% increase from Baseline, % of subjects (Week 16, m=38): (18.4%)
AST >10% increase from Baseline, n subjects (Week 16, m=38): 7
AST Within 10% of Baseline, % of subjects (Week 16, m=38): (31.6%)
AST Within 10% of Baseline, n subjects (Week 16, m=38): 12
Albumin >10% decrease from Baseline, % of subjects (Week 16, m=38): (5.3%)
Albumin >10% decrease from Baseline, n subjects (Week 16, m=38): 2
Albumin >10% increase from Baseline, n subjects (Week 16, m=38): 0
Albumin Within 10% of Baseline, % of subjects (Week 16, m=38): (94.7%)
Albumin Within 10% of Baseline, n subjects (Week 16, m=38): 36
Alkaline Phosphatase >10% decrease from Baseline, % of subjects (Week 16, m=38): (60.5%)
Alkaline Phosphatase >10% decrease from Baseline, n subjects (Week 16, m=38): 23
Alkaline Phosphatase >10% increase from Baseline, % of subjects (Week 16, m=38): (21.1%)
Alkaline Phosphatase >10% increase from Baseline, n subjects (Week 16, m=38): 8
Alkaline Phosphatase Within 10% of Baseline, % of subjects (Week 16, m=38): (18.4%)
Alkaline Phosphatase Within 10% of Baseline, n subjects (Week 16, m=38): 7
Bilirubin >10% decrease from Baseline, % of subjects (Week 16, m=38): (63.2%)
Bilirubin >10% decrease from Baseline, n subjects (Week 16, m=38): 24
Bilirubin >10% increase from Baseline, % of subjects (Week 16, m=38): (23.7%)
Bilirubin >10% increase from Baseline, n subjects (Week 16, m=38): 9
Bilirubin Within 10% of Baseline, % of subjects (Week 16, m=38): (13.2%)
Bilirubin Within 10% of Baseline, n subjects (Week 16, m=38): 5
ALKALINE PHOSPHATASE Change from Baseline, Median (Week 16, n=38): −22.5 U/L
ALT Change from Baseline, Mean (Week 16, n=38): −8.0 U/L
ALT Change from Baseline, Median (Week 16, n=38): −3 U/L
ALT Observed Value, Mean (Week 16, n=38): 37.5 U/L
ALT Observed Value, Median (Week 16, n=38): 26.5 U/L
AST Change from Baseline, Mean (Week 16, n=38): −3.3 U/L
AST Change from Baseline, Median (Week 16, n=38): −3 U/L
AST Observed Value, Mean (Week 16, n=38): 29.8 U/L
AST Observed Value, Median (Week 16, n=38): 26 U/L
Albumin Change from Baseline, Mean (Week 16, n=38): -0.7 g/L
Albumin Change from Baseline, Median (Week 16, n=38): -0.5 g/L
Albumin Observed Value, Mean (Week 16, n=38): 41.7 g/L
Albumin Observed Value, Median (Week 16, n=38): 42 g/L
Alkaline Phosphatase Change from Baseline, Mean (Week 16, n=38): −24.5 U/L
Alkaline Phosphatase Observed Value, Mean (Week 16, n=38): 114.2 U/L
Alkaline Phosphatase Observed Value, Median (Week 16, n=38): 102 U/L
Bilirubin Change from Baseline, Mean (Week 16, n=38): -3.41 µmol/L
Bilirubin Change from Baseline, Median (Week 16, n=38): -1.75 µmol/L
Bilirubin Observed Value, Mean (Week 16, n=38): 9.40 µmol/L
Bilirubin Observed Value, Median (Week 16, n=38): 8.1 µmol/L
Gamma Glutamyl Transferase Change from Baseline, Mean (Week 16, n=38): −7.0 U/L
Gamma Glutamyl Transferase Change from Baseline, Median (Week 16, n=38): −5.5 U/L
